Experimental data from patent US20090325959A1 (priority 2008, published 2009).
Where two headings read alike, the source gives them in different places.

Assays:
[1] = tested on: NIH/3T3 cells; assay: NIH/3T3 cell morphology assay (actin cytoskeleton disruption); format: cell-based; details: score 0 (no effect) to 4 (complete disruption) of the actin cytoskeleton; 60 minutes
Description: NIH/3T3 cells were grown in DMEM-H containing glutamine and 10% Colorado Calf Serum. Cells were passaged regularly prior to reaching confluence. Eighteen to 24 hours prior to experimentation, the cells were plated onto Poly-L-Lysine-coated glass bottom 24-well plates. On the day of experimentation, the cell culture medium was removed and was replaced with the same medium containing from 10 nM to 25 μM of the test compound, and the cells were incubated for 60 minutes at 37° C. The culture medium was then removed and the cells were washed with warmed PBS and fixed for 10 minutes with warmed 4% paraformaldehyde. The cells were permeabilized with 0.5% Triton-X, stained with TRITC-conjugated phalloidin and imaged using a Nikon Eclipse E600 epifluorescent microscope to determine the degree of actin disruption. Results were expressed as a numerical score indicating the observed degree of disruption of the actin cytoskeleton at the test concentration, ranging from 0 (no effect) to 4 (complete disruption), and were the average of at least 2 determinations.

[2] = tested on: human neutrophils; assay: Human neutrophil chemotaxis induced by fMLP (modified Boyden chamber); format: cell-based
Description: This assay is an in vitro assay of neutrophil chemotaxis that can be used to evaluate the ability of Rho Kinase inhibitor compounds of Formula I or II to inhibit the migration of human neutrophils, an inflammatory cell that has been implicated in the pathophysiology of allergic conjunctivitis.
Peripheral blood from healthy human volunteers was collected and the neutrophils were isolated by Ficoll-paque density centrifugation followed by dextran sedimentation and hypotonic lysis of the red blood cells. Neutrophil chemotaxis was assessed using a modified Boyden Chamber (Neuroprobe, 96-well) with a 3 μm pore polycarbonate membrane. The ability of the tested compounds to block chemotaxis induced by a 1 μM fMLP challenge during a one hour incubation at 37° C. with 5% CO2 was assessed in a dose response manner.

[3] = biological target: T1, ROCK2 (Homo sapiens, UniProt O75116); assay: Rho kinase inhibition assay (IMAP fluorescence polarization), ROCK2; format: biochemical;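 further: kinase reaction started with 10 µM ATP and run 60 min at room temperature, then phosphorylated substrate captured on IMAP beads for 30 min and fluorescence polarization read in mP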
T1 construct: purchased Upstate/Chemicon 14-451
Description: (§1) Following the pre-incubation, 10 μM ATP was added to initiate the reaction. After 60 minutes at room temperature, Molecular Devices IMAP™ binding solution was added to bind phosphorylated substrate. After 30 minutes of incubation in the presence of the IMAP™ beads, the fluorescence polarization was read and the ratio was reported as mP. IC50 values for compounds and EC50 values for ATP were calculated using the Prism software from Graphpad.

[4] = tested on: A-10 rat thoracic aorta cells; assay: PDGF-stimulated smooth muscle cell proliferation assay (BrdU incorporation); format: cell-based; details: A-10 cells, 10 ng/mL PDGF, BrdU incorporation, percent of total challenge-stimulated proliferation; for Percent of PDGF Induced Proliferation at 1 μM Avg: 1 μM test compound; for Percent of PDGF Induced Proliferation at 10 μM Avg: 10 μM test compound;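 on all read-outs here: cells kept in serum-free medium, BrdU allowed to incorporate for 24 h, then incorporated label detected fluorometrically with an anti-BrdU antibody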
[5] = biological target: T2, ROCK1 (Homo sapiens, UniProt Q13464); assay: Rho kinase inhibition assay (IMAP fluorescence polarization), ROCK1; format: biochemical;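 further: kinase reaction run 60 min at room temperature, then phosphorylated substrate captured on IMAP beads for 30 min, with fluorescence polarization read in mP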
T2 construct: purchased Upstate/Chemicon 14-601
Description: as §1

[6] = biological target: T3, Akt3 human enzyme (Homo sapiens, UniProt Q9Y243); assay: Akt3 inhibition assay (IMAP FP); format: biochemical;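 further: kinase reaction run 60 min at room temperature after 30 µM ATP start, phosphorylated substrate captured on IMAP beads and read as fluorescence polarization (mP)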
T3 construct: purchased Upstate Chemicon 14-502

[7] = biological target: T4, p70S6K human enzyme (Homo sapiens, UniProt P23443, T412E); assay: p70S6K inhibition assay (IMAP FP); format: biochemical;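 further: kinase reaction run at room temperature, phosphorylated substrate captured on IMAP beads and read as fluorescence polarization in mP, IC50 then converted to Ki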
T4 construct: purchased Upstate Chemicon 14-486

[8] = Compound plasma concentrations in unsensitized mice at 15 min post administration; format: in vivo; details: mouse, 15 μmol/kg; mean compound plasma concentration in mice at 15 minutes post oral administration; read-out: Mouse Oral PK
[9] = Rat oral pharmacokinetics (plasma); format: in vivo; details: 20-30 μmol/kg; for half-life: mean n = 3, read-out: t½ (converted)
Description: Plasma (EDTA K2 anticoagulant) was collected from male, cannulated, CD Sprague Dawley rats to determine the pharmacokinetics of formulations containing compound inhibitors of Rho kinase. Each animal was dosed orally with a 4 ml/kg solution or suspension of each test compound in 10 mM acetate buffered saline, pH 4.5 at a final concentration range of 20-30 μmol/kg. Blood was collected at 0.25, 0.5, 1, 2, 4, 6, 8, and 24 hours. Plasma samples were assayed for the concentration of the test compound using an on-line, solid phase extraction LC/MS/MS analysis system.
Samples were analyzed on a QSTAR Elite, hybrid quadrupole time-of-flight mass spectrometer (Applied Biosystems, Framingham, Mass.) coupled with a Symbiosis Pharma integrated, on-line SPE-HPLC system (Spark Holland Inc., Plainsboro, N.J.). Analyst QS 2.0 software was used for instrument control, data acquisition and processing. […] Mobile Phase A consisted of 0.1% ammonium hydroxide in water and Mobile Phase B consisted of 0.1% formic acid in acetonitrile. Pharmacokinetic analyses were performed using WinNonlin software version 5.2 (Pharsight Corporation, Mountain View, Calif.).
As determined from the plasma concentration versus time curves, the time to peak and peak exposure are represented by the values Tmax and Cmax, respectively. The AUC values (nM*hr) shown were calculated as the areas under the plasma concentration versus time curves from time zero through the time of the last observable value and represent the total exposure of the compound over the course of the study. Half-life values or the amount of time required for the plasma levels of the compound to decline to half the initial value are represented as t½.

[10] = Neutrophil, 1 h, 1 μM fMLP challenge, one hour, read-out: Chemotaxis Avg. IC50
[11] = 10 μM ATP, read-out: ROCK2 Ki, Avg
[12] = average IC50 for inhibition of fMLP-induced neutrophil chemotaxis, read-out: Chemotaxis IC50
[13] = 30 μM ATP, Ki=IC50/(1+([ATP Challenge]/EC50 ATP)), read-out: Akt3 Ki, Avg
[14] = 30 μM ATP, Ki=IC50/(1+([ATP Challenge]/EC50 ATP)), read-out: p70S6K Ki, Avg
[15] = average Ki, read-out: p70S6K Ki
[16] = male, CD Sprague Dawley, mean n = 3
[17] = male, CD Sprague Dawley, mean n = 3, read-out: Cmax
[18] = male, CD Sprague Dawley, mean n = 3, read-out: Tmax

T3 sequence (Q9Y243 whole entry): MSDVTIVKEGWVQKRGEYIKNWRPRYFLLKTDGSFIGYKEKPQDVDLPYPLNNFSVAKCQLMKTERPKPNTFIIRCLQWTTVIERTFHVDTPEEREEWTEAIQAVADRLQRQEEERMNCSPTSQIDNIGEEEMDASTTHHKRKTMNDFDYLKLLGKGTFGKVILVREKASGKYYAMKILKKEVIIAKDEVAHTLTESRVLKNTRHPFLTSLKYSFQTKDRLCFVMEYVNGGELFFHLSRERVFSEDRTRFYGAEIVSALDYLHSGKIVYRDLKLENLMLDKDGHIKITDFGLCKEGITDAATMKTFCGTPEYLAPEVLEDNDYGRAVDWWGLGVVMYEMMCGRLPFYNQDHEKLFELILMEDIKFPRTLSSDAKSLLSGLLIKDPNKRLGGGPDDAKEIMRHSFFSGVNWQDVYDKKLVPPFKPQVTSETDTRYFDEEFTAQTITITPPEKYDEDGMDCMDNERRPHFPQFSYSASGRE
T1 sequence (O75116 11-552 limits assumed): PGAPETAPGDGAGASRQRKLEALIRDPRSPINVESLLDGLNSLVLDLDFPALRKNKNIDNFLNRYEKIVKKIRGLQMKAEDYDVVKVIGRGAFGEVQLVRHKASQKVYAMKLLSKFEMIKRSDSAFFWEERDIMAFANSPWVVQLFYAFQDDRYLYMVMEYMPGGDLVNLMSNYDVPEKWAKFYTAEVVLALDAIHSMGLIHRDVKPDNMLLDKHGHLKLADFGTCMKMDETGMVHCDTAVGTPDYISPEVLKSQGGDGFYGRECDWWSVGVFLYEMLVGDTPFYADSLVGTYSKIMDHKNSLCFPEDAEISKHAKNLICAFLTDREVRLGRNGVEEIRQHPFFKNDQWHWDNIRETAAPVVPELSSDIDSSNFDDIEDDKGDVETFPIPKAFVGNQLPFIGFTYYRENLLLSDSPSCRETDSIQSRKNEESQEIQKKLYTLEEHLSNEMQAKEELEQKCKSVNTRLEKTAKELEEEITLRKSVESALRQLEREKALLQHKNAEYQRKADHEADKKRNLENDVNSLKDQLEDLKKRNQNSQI
T4 sequence (P23443 1-421 T412E limits assumed): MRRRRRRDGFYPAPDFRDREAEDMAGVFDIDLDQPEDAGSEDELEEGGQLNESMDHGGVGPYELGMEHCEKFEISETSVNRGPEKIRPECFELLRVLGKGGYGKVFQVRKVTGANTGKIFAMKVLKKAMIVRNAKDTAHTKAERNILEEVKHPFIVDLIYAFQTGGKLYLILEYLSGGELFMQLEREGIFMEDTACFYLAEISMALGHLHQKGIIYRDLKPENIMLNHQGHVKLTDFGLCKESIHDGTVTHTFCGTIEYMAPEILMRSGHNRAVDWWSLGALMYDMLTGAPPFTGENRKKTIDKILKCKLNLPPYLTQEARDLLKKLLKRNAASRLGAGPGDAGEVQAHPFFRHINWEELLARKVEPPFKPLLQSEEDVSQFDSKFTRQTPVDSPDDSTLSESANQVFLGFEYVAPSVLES
T2 sequence (Q13464 17-535 limits assumed): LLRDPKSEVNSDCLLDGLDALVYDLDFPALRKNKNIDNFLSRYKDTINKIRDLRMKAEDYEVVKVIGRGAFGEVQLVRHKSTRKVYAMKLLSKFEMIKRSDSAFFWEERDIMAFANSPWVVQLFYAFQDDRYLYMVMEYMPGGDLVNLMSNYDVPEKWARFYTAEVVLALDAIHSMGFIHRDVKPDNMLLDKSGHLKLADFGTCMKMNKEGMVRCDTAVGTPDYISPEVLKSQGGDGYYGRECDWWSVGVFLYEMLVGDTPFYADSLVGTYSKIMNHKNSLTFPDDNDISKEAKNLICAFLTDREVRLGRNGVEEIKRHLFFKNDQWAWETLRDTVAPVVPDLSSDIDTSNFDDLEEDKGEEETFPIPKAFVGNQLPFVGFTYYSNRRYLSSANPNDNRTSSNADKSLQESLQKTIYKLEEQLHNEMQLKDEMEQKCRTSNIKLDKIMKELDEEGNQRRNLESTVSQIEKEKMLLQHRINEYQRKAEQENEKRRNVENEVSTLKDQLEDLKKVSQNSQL

SMILES | Cell score at 1 μM [1] | IC50 [2, 10] [nM] | Ki [3, 11] [nM] | Ki ([3]; average Ki, read-out: ROCK2 Ki) [nM] | IC50 [2, 12] [nM] | Ki ([5]; Avg, 10 μM ATP) [nM] | Ki ([5]; average Ki) [nM] | Ki [6, 13] [nM] | Ki ([6]; average Ki, read-out: Akt3 Ki) [nM] | Ki [7, 14] [nM] | Ki [7, 15] [nM] | concentration at 15 min [8] [nM] | further results
Clc1ccc(CN2CCC(Nc3ccc4[nH]ncc4c3)C2)cc1Cl (stereo not shown) [Compound 1.062, N-(1-(3,4-dichlorobenzyl)pyrrolidin-3-yl)-1H-indazol-5-amine] | 2.3 | – | – | – | – | – | – | – | – | – | – | – | –
CS(=O)(=O)c1cccc(CN2CCCC(Nc3ccc4[nH]ncc4c3)C2)c1 (stereo not shown) [Compound 1.048, N-(1-(3-(methylsulfonyl)benzyl)piperidin-3-yl)-1H-indazol-5-amine] | 1.5 | – | – | – | – | – | – | – | – | – | – | – | –
C[C@@H](N)c1ccc(C(=O)Nc2ccnc3[nH]ccc23)cc1 [Compound Y-39983, reference compound] | – | 1390 | – | – | – | – | – | – | – | – | – | – | –
O=S(=O)(c1cccc2cnccc12)N1CCCNCC1 [fasudil, reference compound] | – | 23800 | – | – | – | – | – | – | – | – | – | – | –
c1cc2cc(CN3CCC[C@@H](Nc4ccc5[nH]ncc5c4)C3)ccc2s1 [Compound 1.138, (R)-N-(1-(benzo[b]thiophen-5-ylmethyl)piperidin-3-yl)-1H-indazol-5-amine] | – | 1850 | 7.2 | 6.3 | 1900 | 36.3 | 41.1 | 91.3 | 91.3 | 444 | 444 | 1860 | Percent of PDGF Induced Proliferation at 1 μM Avg [4]: 46.3%; Percent of PDGF Induced Proliferation at 10 μM Avg [4]: 27.0%
c1ccc(CN2CCC(Nc3cccc4cnccc34)C2)cc1 (stereo not shown) [Compound 2.006, N-(1-benzylpyrrolidin-3-yl)isoguinolin-5-amine] | 2.8 | – | – | – | – | – | – | – | – | – | – | – | –
COc1ccc(CN2CCC(Nc3cccc4cnccc34)C2)cc1 (stereo not shown) [Compound 2.017, N-(1-(4-methoxybenzyl)pyrrolidin-3-yl)isoquinolin-5-amine] | 2 | – | – | – | – | – | – | – | – | – | – | – | –
Cc1cccc(CN2CCCC(Nc3ccc4[nH]ncc4c3)C2)c1 (stereo not shown) [Compound 1.066, N-(1-(3-methylbenzyl)piperidin-3-yl)-1H-indazol-5-amine] | 2 | – | – | – | – | – | – | – | – | – | – | – | –
CSc1ccc(CN2CC[C@@H](Nc3cccc4cnccc34)C2)cc1 [Compound 2.026, (R)-N-(1-(4-(methylthio)benzyl)pyrrolidin-3-yl)isoquinolin-5-amine] | – | – | 13 | 13 | – | 38 | 38 | 2080 | 2080 | 536 | 536 | 629 | Percent of PDGF Induced Proliferation at 1 μM Avg [4]: 74.5%; Percent of PDGF Induced Proliferation at 10 μM Avg [4]: 52.0%; IC50 ([2]; Neutrophil, 1 h, read-out: Chemotaxis Avg. IC50): 3800 nM; IC50 ([2]; Neutrophil, read-out: Chemotaxis IC50): 3800 nM; AUC (0-last) ([9]; mean n = 3): BLQ; Cmax ([9]; mean n = 3): BLQ; Tmax ([9]; mean n = 3): BLQ; Vz_F ([9]; mean n = 3): BLQ; t½ ([9]; mean n = 3): BLQ
Cc1ccc(CN2CCCC(Nc3ccc4[nH]ncc4c3)C2)c(C)c1 (stereo not shown) [Compound 1.024, N-(1-(2,4-dimethylbenzyl)piperidin-3-yl)-1H-indazol-5-amine] | 2.4 | – | – | – | – | – | – | – | – | – | – | – | –
OCc1ccc(CN2CCCC(Nc3ccc4[nH]ncc4c3)C2)cc1 (stereo not shown) [Compound 1.025, (4-((3-(1H-indazol-5-ylamino)piperidin-1-yl)methyl)phenyl)methanol] | 2 | – | – | – | – | – | – | – | – | – | – | – | –
OCCOc1cccc(CN2CCC[C@@H](Nc3cccc4cnccc34)C2)c1 [Compound 2.034, (R)-2-(3-((3-(isoquinolin-5-ylamino)piperidin-1-yl)methyl)phenoxy)ethanol] | – | 4730 | 221 | – | – | 1000 | – | – | – | – | – | – | –
CS(=O)(=O)Nc1cccc(CN2CCC(Nc3ccc4[nH]ncc4c3)C2)c1 (stereo not shown) [Compound 1.087, N-(3-((3-(1H-indazol-5-ylamino)pyrrolidin-1-yl)methyl)phenyl)methanesulfonamide] | – | 4500 | 15.4 | – | – | 84.1 | – | – | – | – | – | – | –
CCS(=O)(=O)Nc1cccc(CN2CCC[C@@H](Nc3ccc4[nH]ncc4c3)C2)c1 [Compound 1.123, (R)-N-(3-((3-(1H-indazol-5-ylamino)piperidin-1-yl)methyl)phenyl)ethanesulfonamide] | – | 3050 | 9.6 | 9.6 | 3100 | 82.3 | 82.3 | 2410 | 2410 | 2810 | 2810 | 71 | Vz_F ([9]; mean n = 3): 14.8 L/kg; AUC(0-t) [9, 16]: 2.06 µM·h; Cmax [9, 17]: 2040 nM; Tmax [9, 18]: 19.8 min; half-life ([9]; male, CD Sprague Dawley): 54 min
OCCOc1cccc(CN2CCC[C@H](Nc3cccc4cnccc34)C2)c1 [Compound 2.036, (S)-2-(3-((3-(isoquinolin-5-ylamino)piperidin-1-yl)methyl)phenoxy)ethanol] | – | 2770 | 233 | – | – | 579 | – | – | – | – | – | – | –
Cc1ccc(CN2CC[C@@H](Nc3cccc4cnccc34)C2)cc1 [Compound 2.025, (R)-N-(1-(4-methylbenzyl)pyrrolidin-3-yl)isoquinolin-5-amine] | – | 1650 | 2.9 | 2.9 | 1700 | 6.9 | 6.9 | 966 | 966 | 499 | 499 | 74 | Percent of PDGF Induced Proliferation at 1 μM Avg [4]: 69.8%; Percent of PDGF Induced Proliferation at 10 μM Avg [4]: 68.0%
OCCOc1cccc(CN2CC[C@@H](Nc3cccc4cnccc34)C2)c1 [Compound 2.039, (R)-2-(3-((3-(isoquinolin-5-ylamino)pyrrolidin-1-yl)methyl)phenoxy)ethanol] | – | 1640 | 6.7 | 6.7 | 1600 | 18.8 | 18.8 | 1990 | 1990 | 1010 | 1010 | 92 | Vz_F ([9]; mean n = 3): 59.4 L/kg; AUC(0-t) [9, 16]: 0.905 µM·h; Cmax [9, 17]: 783 nM; Tmax [9, 18]: 19.8 min; half-life ([9]; male, CD Sprague Dawley): 67.8 min
CS(=O)(=O)Nc1cccc(CN2CC[C@H](Nc3cccc4cnccc34)C2)c1 [Compound 2.035, (S)-N-(3-((3-(isoquinolin-5-ylamino)pyrrolidin-1-yl)methyl)phenyl)methanesulfonamide] | – | 6600 | 202 | – | – | 601 | – | – | – | – | – | – | –
CCS(=O)(=O)Nc1cccc(CN2CCC[C@H](Nc3ccc4[nH]ncc4c3)C2)c1 [Compound 1.124, (S)-N-(3-((3-(1H-indazol-5-ylamino)piperidin-1-yl)methyl)phenyl)ethanesulfonamide] | – | 3400 | 3.3 | 3.3 | 3400 | 64.5 | 64.5 | 7870 | 7870 | 3330 | 3330 | 118 | Percent of PDGF Induced Proliferation at 1 μM Avg [4]: 68.5%; Percent of PDGF Induced Proliferation at 10 μM Avg [4]: 61.6%; Vz_F ([9]; mean n = 3): 93.4 L/kg; AUC(0-t) [9, 16]: 0.535 µM·h; Cmax [9, 17]: 415 nM; Tmax [9, 18]: 30 min; half-life ([9]; male, CD Sprague Dawley): 83.4 min
CCc1ccc(CN2CCC[C@@H](Nc3ccc4[nH]ncc4c3)C2)cc1 [Compound 1.136, (R)-N-(1-(4-ethylbenzyl)piperidin-3-yl)-1H-indazol-5-amine] | – | 2600 | 5.4 | 5.1 | 2600 | 40.3 | 25.8 | 290 | 290 | 1240 | 1240 | – | AUC (0-last) ([9]; mean n = 3): BLQ; Cmax ([9]; mean n = 3): BLQ; Tmax ([9]; mean n = 3): BLQ; Vz_F ([9]; mean n = 3): BLQ; t½ ([9]; mean n = 3): BLQ
